From US9078928B2, “Conjugated molecules comprising a peptide derived from the CD4 receptor coupled to a polyanionic polypeptide for the treatment of AIDS” (Institut Pasteur, priority 2011, dated 2015) come the findings set out here.

Holding throughout (type): cell-based
In one assay the test system is X4-tropic HIV-1-LAI. Put plainly: Antiviral assay in PHA-P-activated PBMC, RT activity in supernatant at day 7 (Example 3). Particulars: mean of triplicate; for ED70 VIH-1-LAI(X4) Average: effective dose to inhibit 70% of HIV-1 replication; for ED90 VIH-1-LAI(X4) Average: effective dose to inhibit 90% of HIV-1 replication. The procedure:
The antiviral experiment have been performed as described in WO/2009/098147 and Nature Chemical Biology, 2009, 5(10), 743-748.
(§1) Briefly, the X4-tropic HIV-1-LAI (Barre-Sinoussi, Science 220, 868-71, 1983) or the R5-tropic HIV-1/Ba-L (Gartner et al, Science 233, 215-9, 1986) strains were amplified and titrated in vitro on Phytohemaglutinin-P (PHA-P)-activated peripheral blood mononuclear cells (PBMC). Tissue culture infectious doses were calculated using Kärber's formula (Kärber, Arch. Exp. Path. Pharmak. 162, 480-483, 1931). For the antiviral assay, PHA-P-activated PBMC were pre-treated for 30 minutes with six concentrations of each drug (1:5 dilutions between 0.5 μM and 160 pM) and infected with one hundred 50% tissue culture infectious doses (TCID50) of either the X4-tropic LAI or R5-tropic Ba-L strain. Drugs were maintained throughout the culture, and cell supernatants were collected at day 7 post-infection and stored at −20° C. Azidothymidine (AZT) was used in these experiments as an internal control. Viral replication was measured by quantifying reverse transcriptase (RT) activity in cell culture supernatants using the RetroSys HIV RT kit (Innovagen). In parallel, cytotoxicity of the samples was evaluated in uninfected PHA-P-activated PBMC by a methyltetrazolium salt (MTT) assay on day 7. Experiments were performed in triplicate and 50, 70 and 90% effective doses and cytotoxic doses were calculated using SoftMaxPro software.
PHA-P-activated PBMC were treated with each of the drug under investigation (1:5 dilutions between 0.5 μM and […]) and infected with 100 TCID50 of either HIV-1-LAI (X4 tropic) or /Ba-L (R5 tropic) strain. Molecules and viruses were maintained throughout the culture, and cell supernatants were collected at day 7 post-infection from which reverse transcriptase activity was quantified. Experiments were performed in triplicate and 50, 70 and 90% effective doses (ED), in nM (±S.D.) were calculated using SoftMaxPro software.

The subject of the next assay is R5-tropic HIV-1/Ba-L. The description is as above. Particulars: mean of triplicate; for ED70 VIH-1/Ba-L(R5) Average: effective dose to inhibit 70% of HIV-1 replication; for ED90 VIH-1/Ba-L(R5) Average: effective dose to inhibit 90% of HIV-1 replication. The protocol:
as §1, with “For the antiviral assay, PHA-P-activated PBMC were pre-treated for 30 minutes with six concentrations of each drug (1:5 dilutions between 0.5 μM and 160 pM) and infected with one hundred 50% tissue culture infectious doses (TCID50) of either the X4-tropic LAI or R5-tropic Ba-L strain.” left out
Molecules and viruses were maintained throughout the culture, and cell supernatants were collected at day 7 post-infection from which reverse transcriptase activity was quantified. Experiments were performed in triplicate and 50, 70 and 90% effective doses (ED), in nM (±S.D.) were calculated using SoftMaxPro software.

The next assay deals with clinical HIV-1 isolates. Put plainly: Antiviral assay on the series of clinical HIV-1 isolates, summary in text (Example 4). Particulars: primary strains of Table 5. The text has this:
The antiviral assay was extended to a series of more clinically relevant primary strains, including 92UG029, SF162, 92US723, 96USHIPS4, 92HT599 and 98IN017.
Phytohemagglutinin (PHA)-P-activated PBMCs were infected either with the reference lymphotropic HIV-1/LAI strain (Barre-Sinoussi, et al., 1983) or with the reference macrophage-tropic HIV-1/Ba-L strain (Gartner, et al., 1986). These viruses were amplified in vitro with PHA-P-activated blood mononuclear cells. Viral stocks (including clinical isolates) were titrated using PHA-P-activated PBMCs, and 50% tissue culture infectious doses (TCID50) were calculated using Kärber's formula (Kärber, 1931). Viruses (125 TCID50) were incubated for 30 min with five concentrations (1:5 dilutions between 500 nM and 320 pM) of each of the molecules to be tested and added to 150 000 PBMCs (m.o.i.˜0.001). […] Viral replication was measured by quantifying reverse transcriptase (RT) activity in the cell culture supernatants using the Lenti RT Activity Kit (Cavisi) and AZT was used as reference anti-HIV-1 molecule. In parallel, cytotoxicity was evaluated on day 7 in uninfected PHA-P-activated PBMC using a colorimetric methyl-tetrazolium salt (MTS/PMS) assay (Promega). Experiments were performed in triplicate and 50, 70 and 90% effective doses (ED) were calculated using SoftMaxPro software.

Turning to “NH2-(CH2)3-CO-S-Asu-D-Asu-S-Asu-D-Asu-F-Asu-F-D-Asu-S [P3Asu]”, in the assay on X4-tropic HIV-1-LAI, the “ED70 VIH-1-LAI(X4) Average” value was over 0.5 µM and the “ED90 VIH-1-LAI(X4) Average” value was over 0.5 µM. Moreover, in the assay on R5-tropic HIV-1/Ba-L, the “ED70 VIH-1/Ba-L(R5) Average” value is over 0.5 µM and the “ED90 VIH-1/Ba-L(R5) Average” value was over 0.5 µM.

In the case of “NH2-(CH2)3-CO-S-YSO3-D-YSO3-S-YSO3-D-YSO3-S-YSO3-D-YS03-S (SXDXSXDXSXDXS; non-natural residues) [P3YSO3]”, the “antiviral activity against clinical isolates (in words)” value in the assay on clinical HIV-1 isolates was “only poorly active or inactive”.

For the substance “NH2-(CH2)3-CO-S-pF-D-pF-S-pF-D-pF-S-pF-D-pF-S [P3pF]”, in the assay with X4-tropic HIV-1-LAI, the “ED70 VIH-1-LAI(X4) Average” value is over 0.5 µM and the “ED90 VIH-1-LAI(X4) Average” value was over 0.5 µM. For the same substance, in the assay on R5-tropic HIV-1/Ba-L, the “ED70 VIH-1/Ba-L(R5) Average” value is over 0.5 µM and the “ED90 VIH-1/Ba-L(R5) Average” value was over 0.5 µM.
